In patent publication US9884842B2, “Combretastatin analogs” (The Board of Trustees of the University of Arkansas, priority 2013, dated 2018):
Where two headings read alike, the source gives them in different places.

What was measured:
M14 = assay: NCI growth inhibition and cytotoxicity screen, Melanoma panel; conditions: Homo sapiens; for GI50: M14; for CC50: M14, read-out: LC50
SK-MEL-5 = assay: as above; conditions: Homo sapiens; for GI50: SK-MEL-5; for CC50: SK-MEL-5, read-out: LC50
UACC-62 = assay: as above; conditions: Homo sapiens; for GI50: UACC-62; for CC50: UACC-62, read-out: LC50
SR = assay: NCI growth inhibition and cytotoxicity screen, Leukemia panel; conditions: Homo sapiens; for CC50: read-out: LC50
NCI/ADR-RES = assay: NCI growth inhibition and cytotoxicity screen, Ovarian Cancer panel; conditions: Homo sapiens; for CC50: read-out: LC50
TK-10 = assay: NCI growth inhibition and cytotoxicity screen, Renal Cancer panel; conditions: Homo sapiens; for GI50: TK-10; for CC50: TK-10, read-out: LC50
SW-620 = assay: NCI growth inhibition and cytotoxicity screen, Colon Cancer panel; conditions: Homo sapiens; for GI50: SW-620; for CC50: SW-620, read-out: LC50
SK-MEL-28 = assay: NCI growth inhibition and cytotoxicity screen, Melanoma panel; conditions: Homo sapiens; for GI50: SK-MEL-28; for CC50: SK-MEL-28, read-out: LC50
786-0 = assay: NCI growth inhibition and cytotoxicity screen, Renal Cancer panel; conditions: Homo sapiens; for GI50: 786-0; for CC50: 786-0, read-out: LC50
PC-3 = assay: NCI growth inhibition and cytotoxicity screen, Prostate Cancer panel; conditions: Homo sapiens; for GI50: PC-3; for CC50: PC-3, read-out: LC50
HCT-15 = assay: NCI growth inhibition and cytotoxicity screen, Colon Cancer panel; conditions: Homo sapiens; for GI50: HCT-15; for CC50: HCT-15, read-out: LC50
[1] = test system: full panel of 60 different cancer cell lines; assay: NCI five dose screen, full panel summary; type: cell-based, human; conditions: for GI50: Homo sapiens
MDA-MB-468 = assay: cells; conditions: Homo sapiens; for GI50: MDA-MB-468; for CC50: MDA-MB-468, read-out: LC50
HT29 = assay: NCI growth inhibition and cytotoxicity screen, Colon Cancer panel; conditions: Homo sapiens; for GI50: HT-29; for CC50: HT-29, read-out: LC50
OVCAR-8 = assay: NCI growth inhibition and cytotoxicity screen, Ovarian Cancer panel; conditions: Homo sapiens; for GI50: OVCAR-8; for CC50: OVCAR-8, read-out: LC50
HCT-116 = assay: NCI growth inhibition and cytotoxicity screen, Colon Cancer panel; conditions: Homo sapiens; for GI50: HCT-116; for CC50: HCT-116, read-out: LC50
ACHN = assay: NCI growth inhibition and cytotoxicity screen, Renal Cancer panel; conditions: Homo sapiens; for CC50: read-out: LC50
COLO 205 = assay: NCI growth inhibition and cytotoxicity screen, Colon Cancer panel; conditions: Homo sapiens; for CC50: COLO 205, read-out: LC50
MCF7 = assay: NCI growth inhibition and cytotoxicity screen, Breast Cancer panel; conditions: Homo sapiens; for GI50: MCF7; for CC50: MCF7, read-out: LC50
MOLT-4 = assay: NCI growth inhibition and cytotoxicity screen, Leukemia panel; conditions: Homo sapiens; for GI50: MOLT-4; for CC50: MOLT-4, read-out: LC50
NCI-H460 = assay: NCI growth inhibition and cytotoxicity screen, Lung Cancer panel; conditions: Homo sapiens; for GI50: NCI-H460; for CC50: NCI-H460, read-out: LC50
MALME-3M = assay: NCI growth inhibition and cytotoxicity screen, Melanoma panel; conditions: Homo sapiens; for CC50: read-out: LC50
OVCAR-4 = assay: NCI growth inhibition and cytotoxicity screen, Ovarian Cancer panel; conditions: Homo sapiens; for GI50: OVCAR-4; for CC50: OVCAR-4, read-out: LC50
NCI-H322M = assay: NCI growth inhibition and cytotoxicity screen, Lung Cancer panel; conditions: Homo sapiens; for CC50: read-out: LC50
KM12 = assay: NCI growth inhibition and cytotoxicity screen, Colon Cancer panel; conditions: Homo sapiens; for GI50: KM12; for CC50: KM12, read-out: LC50
HS 578T = assay: NCI growth inhibition and cytotoxicity screen, Breast Cancer panel; conditions: Homo sapiens; for CC50: read-out: LC50
HOP-62 = assay: NCI growth inhibition and cytotoxicity screen, Lung Cancer panel; conditions: Homo sapiens; for GI50: HOP-62; for CC50: HOP-62, read-out: LC50
SF-268 = assay: NCI growth inhibition and cytotoxicity screen, CNS Cancer panel; conditions: Homo sapiens; for GI50: SF-268; for CC50: SF-268, read-out: LC50
CAKI-1 = assay: NCI growth inhibition and cytotoxicity screen, Renal Cancer panel; conditions: Homo sapiens; for GI50: CAKI-1; for CC50: CAKI-1, read-out: LC50

## COc1cc(/C(C#N)=C/c2cnc3ccccc3c2)cc(OC)c1OC [PNR-5-10, (Z)-3-(quinolin-3-yl)-2-(3,4,5-trimethoxyphenyl)acrylonitrile]
M14
  GI50: 540 nM
  CC50: > 100000 nM
SK-MEL-5
  GI50: 410 nM
  CC50: > 100000 nM
UACC-62
  GI50: 478 nM
  CC50: > 100000 nM
SR
  GI50: 569 nM
  CC50: > 100000 nM
NCI/ADR-RES
  GI50: 343 nM
  CC50: > 100000 nM
TK-10
  GI50: 2550 nM
  CC50: > 100000 nM
SW-620
  GI50: 420 nM
  CC50: > 100000 nM
SK-MEL-28
  GI50: 3270 nM
  CC50: > 100000 nM
786-0
  GI50: 6290 nM
  CC50: > 100000 nM
PC-3
  GI50: 1080 nM
  CC50: > 100000 nM
HCT-15
  GI50: 1080 nM
  CC50: > 100000 nM
[1]; range over the potently inhibited cell lines, read-out: GI50 ranging (potently inhibited cancer cell lines)
  GI50: 227 to 911 nM
[1]; read-out: average GI50 value on all the cancer cell lines
  GI50: 2490 nM
[1]; share of the cancer cell lines potently inhibited
  potent growth inhibition on % of the cancer cell lines: 47%
MDA-MB-468
  GI50: 870 nM
  CC50: > 100000 nM
HT29
  GI50: 421 nM
  CC50: > 100000 nM
OVCAR-8
  GI50: 3410 nM
  CC50: > 100000 nM
HCT-116
  GI50: 464 nM
  CC50: > 100000 nM
ACHN
  GI50: 911 nM
  CC50: > 100000 nM
COLO 205
  CC50: 9440 nM
MCF7
  GI50: 429 nM
  CC50: > 100000 nM
MOLT-4
  GI50: 3200 nM
  CC50: > 100000 nM
NCI-H460
  GI50: 2050 nM
  CC50: > 100000 nM
MALME-3M
  GI50: 691 nM
  CC50: > 100000 nM
OVCAR-4
  GI50: 13800 nM
  CC50: > 100000 nM
NCI-H322M
  GI50: 27400 nM
  CC50: > 100000 nM
KM12
  GI50: 436 nM
  CC50: > 100000 nM
HS 578T
  GI50: 1310 nM
  CC50: > 100000 nM
HOP-62
  GI50: 10300 nM
  CC50: > 100000 nM
SF-268
  GI50: 9170 nM
  CC50: > 100000 nM
CAKI-1
  GI50: 346 nM
  CC50: > 100000 nM

## COc1cc(/C=C/c2nc3ccccc3s2)cc(OC)c1OC [Formula (I)(d)]
M14
  GI50: 0.063 nM
  CC50: 48500 nM
SK-MEL-5
  GI50: 0.047 nM
  CC50: 34000 nM
UACC-62
  GI50: 0.05 nM
  CC50: 55900 nM
SR
  GI50: 0.036 nM
  CC50: > 100000 nM
NCI/ADR-RES
  GI50: 0.1 nM
  CC50: > 100000 nM
TK-10
  GI50: 11.1 nM
  CC50: > 100000 nM
SW-620
  GI50: 0.43 nM
  CC50: > 100000 nM
SK-MEL-28
  GI50: 0.31 nM
  CC50: 50500 nM
786-0
  GI50: 1.32 nM
  CC50: > 100000 nM
PC-3
  GI50: 0.13 nM
  CC50: > 100000 nM
HCT-15
  GI50: 0.063 nM
  CC50: > 100000 nM
MDA-MB-468
  GI50: 0.82 nM
  CC50: > 100000 nM
HT29
  GI50: 0.038 nM
  CC50: > 100000 nM
OVCAR-8
  GI50: 0.39 nM
  CC50: > 100000 nM
HCT-116
  GI50: 0.0072 nM
  CC50: > 100000 nM
ACHN
  GI50: 1.22 nM
  CC50: > 100000 nM
COLO 205; COLO 205
  GI50: 0.049 nM
COLO 205
  CC50: 24600 nM
MCF7
  GI50: 0.31 nM
  CC50: 51500 nM
MOLT-4
  GI50: 1.28 nM
  CC50: > 100000 nM
NCI-H460
  GI50: 0.11 nM
  CC50: > 100000 nM
MALME-3M
  GI50: 0.07 nM
  CC50: 51600 nM
OVCAR-4
  GI50: 1.81 nM
  CC50: > 100000 nM
NCI-H322M
  CC50: > 100000 nM
KM12
  GI50: 0.072 nM
  CC50: 41600 nM
HS 578T
  GI50: 0.17 nM
  CC50: > 100000 nM
HOP-62
  GI50: 0.39 nM
  CC50: 81500 nM
SF-268
  GI50: 0.56 nM
  CC50: > 100000 nM
CAKI-1
  GI50: 0.14 nM
  CC50: > 100000 nM
